The values below come from patent publication US20250026721A1, “COMPOUNDS AND METHODS FOR MODULATING RAS-PI3K” (Vividion Therapeutics, Inc., priority 2023, published 2025).

The structures appear in SMILES notation.

The target in experiment [1] is T1, PIK3CA (Homo sapiens, UniProt P42336).
T1 construct: endogenous in cells; host or cells: Jurkat cell lysate
The experiment is described as follows: In vitro ELISA target engagement assay for PIK3CA in Jurkat cellular lysate (competition with PIK3CA Biotin Probe). Format: binding. The following applies: 1 hour at rt, then 500 nM PIK3CA Biotin Probe, read-out: Elisa Target Engagement Assay (TE50). In outline: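 Competition format in Jurkat lysate: compound (serial dilutions, top 200 μM) for 1 h at rt, then 500 nM final biotinylated PIK3CA probe for 1 h at rt. Sandwich ELISA with capture antibody and Neutravidin-HRP luminescence read-out measured probe-labelled PIK3CA, giving TE50.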
For orientation: ELISA stands for enzyme-linked immunosorbent assay.

The subject of experiment [2] is pAKT(S473) in FaDu cell line. The experiment is described as follows: In vitro Phospho-AKT(S473) HTRF analysis in FaDu cells. Format: cell-based. The following applies: Homo sapiens, 0.5 h; for IC50: FaDu cells, 30 minutes at 37° C.; for Emax: FaDu, read-out: FaDu pAKT Imax % control. Here is the method: Example 5. In Vitro Phosgho-AKT(S473) Analysis
Functional activity of the compounds to inhibit pAKT were assessed in FaDu or H358 cell lines as indicated below.
• Complete Media • FBS, Corning catalog #35-010-CV • Anti-Anti, Gibco catalog #15240-062 • 96 well plate, Corning catalog #3610 • TrypLE, Gibco catalog #12604013 • Phospho-AKT(S473) HTRF kit, Cisbio catalog #64AKSPET
Cells were detached from the tissue culture flask with TrypLE. The cells were pelleted at 500×g for 5 min, TrypLe was removed and then resuspended in the necessary volume of media+1% FBS to give the appropriate cell density (17,500 cells/mL for FaDu; 20,000 cells/mL for H358). 100 μL of cell suspension/well was dispensed into the 96-well plate while keeping the outer wells of the plate free of cells and filled with PBS to prevent evaporation of interior wells. The plate was incubated at 37° C. and allowed to adhere overnight. The cells were treated with a dose response of compound and incubated at 37° C. for 30 minutes. The cells were then processed and pAKT(S473) levels were assessed following the specifications of the Cisbio HTRF kit.
Background: In TR-FRET formats the signal depends on donor and acceptor labels being close together.

T1 sequence (P42336 whole entry): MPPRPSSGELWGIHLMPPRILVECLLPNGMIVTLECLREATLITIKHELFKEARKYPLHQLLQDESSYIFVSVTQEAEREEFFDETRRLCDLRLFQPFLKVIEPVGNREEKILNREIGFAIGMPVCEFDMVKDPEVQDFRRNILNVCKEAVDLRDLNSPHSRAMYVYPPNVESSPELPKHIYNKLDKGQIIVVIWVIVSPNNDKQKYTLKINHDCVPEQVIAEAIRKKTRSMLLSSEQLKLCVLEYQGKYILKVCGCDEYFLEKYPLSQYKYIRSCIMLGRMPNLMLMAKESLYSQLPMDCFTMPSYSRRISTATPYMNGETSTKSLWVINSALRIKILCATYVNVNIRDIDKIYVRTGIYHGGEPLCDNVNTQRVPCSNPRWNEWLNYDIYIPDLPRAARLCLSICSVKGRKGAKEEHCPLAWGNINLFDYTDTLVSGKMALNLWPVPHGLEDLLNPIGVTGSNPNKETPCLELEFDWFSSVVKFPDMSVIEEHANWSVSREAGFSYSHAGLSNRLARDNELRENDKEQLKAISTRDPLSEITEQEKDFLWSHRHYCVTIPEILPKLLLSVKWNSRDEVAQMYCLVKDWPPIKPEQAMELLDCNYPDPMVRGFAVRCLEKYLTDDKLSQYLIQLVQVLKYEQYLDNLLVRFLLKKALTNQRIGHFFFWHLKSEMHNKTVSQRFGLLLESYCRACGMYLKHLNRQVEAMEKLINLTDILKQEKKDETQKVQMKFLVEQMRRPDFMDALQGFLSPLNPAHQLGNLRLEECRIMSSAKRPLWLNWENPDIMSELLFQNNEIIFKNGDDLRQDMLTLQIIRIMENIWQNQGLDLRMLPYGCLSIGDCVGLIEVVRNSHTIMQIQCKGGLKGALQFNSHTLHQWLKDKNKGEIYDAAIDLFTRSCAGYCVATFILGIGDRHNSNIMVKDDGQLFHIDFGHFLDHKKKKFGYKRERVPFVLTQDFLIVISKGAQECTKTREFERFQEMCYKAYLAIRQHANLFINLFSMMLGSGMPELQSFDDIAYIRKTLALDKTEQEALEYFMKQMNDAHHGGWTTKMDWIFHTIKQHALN
T1 sequence (P27986 whole entry partner): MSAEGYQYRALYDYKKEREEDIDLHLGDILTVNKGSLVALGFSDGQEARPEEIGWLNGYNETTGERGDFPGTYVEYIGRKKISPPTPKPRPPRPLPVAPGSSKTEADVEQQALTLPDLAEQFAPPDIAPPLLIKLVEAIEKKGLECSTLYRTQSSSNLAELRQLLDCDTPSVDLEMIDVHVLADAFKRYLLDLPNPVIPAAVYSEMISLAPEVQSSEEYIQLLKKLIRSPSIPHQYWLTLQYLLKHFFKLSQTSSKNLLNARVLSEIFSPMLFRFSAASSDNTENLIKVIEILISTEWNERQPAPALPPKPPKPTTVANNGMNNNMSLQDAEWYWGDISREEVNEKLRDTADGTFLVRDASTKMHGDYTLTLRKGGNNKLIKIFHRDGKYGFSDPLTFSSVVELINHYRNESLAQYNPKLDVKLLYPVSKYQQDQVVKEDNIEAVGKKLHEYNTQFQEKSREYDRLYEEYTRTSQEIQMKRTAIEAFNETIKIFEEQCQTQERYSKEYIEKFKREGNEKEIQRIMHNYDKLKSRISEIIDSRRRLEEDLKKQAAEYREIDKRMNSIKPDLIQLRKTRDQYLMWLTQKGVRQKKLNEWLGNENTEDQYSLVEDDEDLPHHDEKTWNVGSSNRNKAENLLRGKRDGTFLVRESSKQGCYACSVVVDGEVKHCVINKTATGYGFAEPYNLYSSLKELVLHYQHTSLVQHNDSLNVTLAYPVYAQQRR

Take `C[C@@H](/C=C\S(C)(=O)=O)NC(=O)C1(F)CCN(S(=O)(=O)c2cnc(C(F)(F)F)cc2-c2cccc(F)c2Cl)CC1` [Compound 210, (S,Z)-1-((4-(2-chloro-3-fluorophenyl)-6-(trifluoromethyl)pyridin-3-yl)sulfonyl)-4-fluoro-N-(4-(methylsulfonyl)but-3-en-2-yl)piperidine-4-carboxamide]: the results for the IC50 in experiment [1] and in experiment [2] were 110 nM and 214 nM, respectively.
In the case of `C[C@H](/C=C\S(C)(=O)=O)NC(=O)C1(F)CCN(C(=O)[C@H]2CN(CC(F)F)C[C@H]2c2ccccc2Cl)CC1` [Compound 206, 1-((3R,4R)-4-(2-chlorophenyl)-1-(2,2-difluoroethyl)pyrrolidine-3-carbonyl)-4-fluoro-N-((R,Z)-4-(methylsulfonyl)but-3-en-2-yl)piperidine-4-carboxamide], the IC50 is 800 nM in experiment [1] and 718 nM in experiment [2]. Further, in experiment [2], the Emax was 106%.
On to `COC[C@@H](/C=C\S(C)(=O)=O)NC(=O)C1(F)CCN(S(=O)(=O)c2ccc(OC)cc2-c2ccccc2Cl)CC1` [Compound 248, (R,Z)-1-((2′-chloro-5-methoxy-[1,1′-biphenyl]-2-yl)sulfonyl)-4-fluoro-N-(1-methoxy-4-(methylsulfonyl)but-3-en-2-yl)piperidine-4-carboxamide], for which the IC50 was found to be 170 nM in experiment [1] and 557 nM in experiment [2].
Take `C[C@H](/C=C\S(C)(=O)=O)NC(=O)[C@@]1(F)CCCN(S(=O)(=O)c2ccc(C(F)(F)F)cc2-c2ccccc2Cl)CC1` [Compound 310, (R)-1-((2′-chloro-5-(trifluoromethyl)-[1,1′-biphenyl]-2-yl)sulfonyl)-4-fluoro-N—((R,Z)-4-(methylsulfonyl)but-3-en-2-yl)azepane-4-carboxamide]: the IC50 in experiment [1] was found to be 85 nM; in experiment [2], 77.1 nM.
For `[2H]C([2H])([2H])Oc1ccc(S(=O)(=O)N2CC[C@@](F)(C(=O)N[C@H](C)/C=C/C(=O)N3CC(F)(F)C3)C[C@H]2C)c(-c2ccccc2Cl)c1` [Compound 300, (2R,4S)-1-((2′-chloro-5-(methoxy-d3)-[1,1′-biphenyl]-2-yl)sulfonyl)-N-((R,E)-5-(3,3-difluoroazetidin-1-yl)-5-oxopent-3-en-2-yl)-4-fluoro-2-methylpiperidine-4-carboxamide], the values for the IC50 in experiment [1] and in experiment [2] were 310 nM and 418 nM, respectively. Further, in experiment [2], the Emax is 94.2%.
Take `O=C(/C=C\CNC(=O)C1(F)CCN(S(=O)(=O)c2ccc(Br)cc2-c2ccccc2Cl)CC1)N1CC(F)(F)C1` [Compound 285, (Z)-1-((5-bromo-2′-chloro-[1,1′-biphenyl]-2-yl)sulfonyl)-N-(4-(3,3-difluoroazetidin-1-yl)-4-oxobut-2-en-1-yl)-4-fluoropiperidine-4-carboxamide]: the IC50 stood at 54.1 nM in experiment [1] and 124 nM in experiment [2].
With `C[C@@H](NC(=O)C1(F)CCN(S(=O)(=O)c2ccc(Br)cc2-c2ccccc2Cl)CC1)C1=CS(=O)(=O)C1` (single isomer, unassigned) [Compound 234, (*R)-1-((5-bromo-2′-chloro-[1,1′-biphenyl]-2-yl)sulfonyl)-N-(1-(1,1-dioxido-2H-thiet-3-yl)ethyl)-4-fluoropiperidine-4-carboxamide], the values for the IC50 in experiment [1] and in experiment [2] were 140 nM and 100 nM, respectively.
With `C[C@H](/C=C\S(C)(=O)=O)NC(=O)C1(F)CCN(S(=O)(=O)c2ccc(N3CCCC3=O)cc2-c2ccccc2Cl)CC1` [Compound 205, (R,Z)-1-((2′-chloro-5-(2-oxopyrrolidin-1-yl)-[1,1′-biphenyl]-2-yl)sulfonyl)-4-fluoro-N-(4-(methylsulfonyl)but-3-en-2-yl)piperidine-4-carboxamide], the IC50 amounted to 650 nM in experiment [1] and 1120 nM in experiment [2].
In the case of `CCOc1ccc(S(=O)(=O)N2CC[C@@](F)(C(=O)N[C@H](C)/C=C\S(C)(=O)=O)C[C@H]2C)c(-c2ccccc2Cl)c1` [Compound 299, (2R,4S)-1-((2′-chloro-5-ethoxy-[1,1′-biphenyl]-2-yl)sulfonyl)-4-fluoro-2-methyl-N-((R,Z)-4-(methylsulfonyl)but-3-en-2-yl)piperidine-4-carboxamide], the values for the IC50 in experiment [1] and in experiment [2] were 210 nM and 146 nM, respectively. Also, in experiment [2], the Emax was determined as 99.6%.
For the molecule `COCc1ccc(S(=O)(=O)N2CC[C@@](F)(C(=O)N[C@H](C)/C=C/C(=O)N3CC(F)(F)C3)C[C@H]2C)c(-c2ccccc2Cl)c1` [Compound 156, (2R,4S)-1-((2′-chloro-5-(methoxymethyl)-[1,1′-biphenyl]-2-yl)sulfonyl)-N-((R,E)-5-(3,3-difluoroazetidin-1-yl)-5-oxopent-3-en-2-yl)-4-fluoro-2-methylpiperidine-4-carboxamide], the IC50 in experiment [1] amounted to 520 nM. In experiment [2], the IC50 is 348 nM and the Emax was 99.2%.
With `C[C@H](/C=C\S(C)(=O)=O)NC(=O)[C@@]1(F)CCCN(C(=O)[C@H]2CN(CC(F)(F)F)C[C@H]2c2cc(F)ccc2Cl)CC1` (single isomer, unassigned) [Compound 166, (R)-1-((3*R,4*R)-4-(2-chloro-5-fluorophenyl)-1-(2,2,2-trifluoroethyl)pyrrolidine-3-carbonyl)-4-fluoro-N-((R,Z)-4-(methylsulfonyl)but-3-en-2-yl)azepane-4-carboxamide], the results for the IC50 in experiment [1] and in experiment [2] were 300 nM and 187 nM, respectively. Moreover, in experiment [2], the Emax turned out to be 78.9%.
The like results for `C[C@H](/C=C/S(C)(=O)=O)NC(=O)[C@@]1(F)CCCN(C(=O)[C@H]2CN(CC(F)(F)F)C[C@H]2c2ccccc2Cl)CC1` [Compound 177, (R)-1-((3R,4R)-4-(2-chlorophenyl)-1-(2,2,2-trifluoroethyl)pyrrolidine-3-carbonyl)-4-fluoro-N-((R,E)-4-(methylsulfonyl)but-3-en-2-yl)azepane-4-carboxamide] were, in that order, 790 nM, 672 nM and 69.5%.
Take `C[C@H](/C=C\S(=O)(=O)[C@@H]1CCN(C)C1)NC(=O)C1(F)CCN(S(=O)(=O)c2ccc(Br)cc2-c2ccccc2Cl)CC1` (single isomer, unassigned) [Compound 237, 1-((5-bromo-2′-chloro-[1,1′-biphenyl]-2-yl)sulfonyl)-4-fluoro-N-((R,Z)-4-(((*R)-1-methylpyrrolidin-3-yl)sulfonyl)but-3-en-2-yl)piperidine-4-carboxamide]: the figures for the IC50 in experiment [1] and in experiment [2] were 55 nM and 73.6 nM, respectively.
Regarding `Cc1cccc([C@@H]2CN(CC(F)(F)F)C[C@@H]2C(=O)N2CCC[C@](F)(C(=O)N[C@H](C)/C=C\S(C)(=O)=O)CC2)c1Cl` (single isomer, unassigned) [Compound 172, (R)-1-((3*R,4*R)-4-(2-chloro-3-methylphenyl)-1-(2,2,2-trifluoroethyl)pyrrolidine-3-carbonyl)-4-fluoro-N-((R,Z)-4-(methylsulfonyl)but-3-en-2-yl)azepane-4-carboxamide], in experiment [1], the IC50 was 580 nM. In experiment [2], the IC50 was 505 nM and the Emax is 97.9%.
In the case of `C[C@H](/C=C/C(=O)N1CC(F)(F)C1)NC(=O)[C@]1(F)CCN(S(=O)(=O)c2ccc(Br)cc2-c2cccc(Cl)c2)[C@H](C)C1` [Compound 155, (2R,4S)-1-((5-bromo-3′-chloro-[1,1′-biphenyl]-2-yl)sulfonyl)-N-((R,E)-5-(3,3-difluoroazetidin-1-yl)-5-oxopent-3-en-2-yl)-4-fluoro-2-methylpiperidine-4-carboxamide], the figures for the IC50 in experiment [1] and in experiment [2] were 300 nM and 305 nM, respectively. The Emax in experiment [2] was 106%.
